B1: C5a: anaphylatoxin, pro-inflammatory polypeptide, the natural ligand of the receptor C5aR1 (protein, UniProt P01031 678-751, looked up)
C5a anaphylatoxin: TLQKKIEEIAAKYKHSVVKKCCYDGACVNNDETCEQRAARISLGPRCIKAFTECCVVASQLRANISHKDMQLGR
modifications: C5a anaphylatoxin
notes: anaphylatoxin, pro-inflammatory polypeptide, the natural ligand of the receptor C5aR1

Legend:
[1] = system: RAW 264.7 mouse macrophages; experiment: Proteome profiler cytokine release assay in RAW 264.7 macrophages; format: cell-based; details: 10 nM, 24 h; for proteome profile of cytokines released: murine
Description: RAW 264.7 (ATTC TIB-71) mouse macrophages were cultured following manufacturer's instructions using DMEM medium (Euroclone, MI, Italy) supplemented with 10% FBS (non-heat inactivated) (ATCC, USA) at 37° C., in a humidified 95% air-5% CO2 atmosphere and then were seeded at 1*10^4 cells/cm^2.
After 24 hours, cells were treated with C5a (diluted in medium) (10 nM, R&D, USA), Paclitaxel (diluted in medium) (10 nM, Sigma, USA) in the absence and in the presence of the C5a inhibitor DF3966A (10 μM), and anti C5aR Ab (BioLegend, CA, USA; 50 nM) or Avacopan (10 μM) for 24 hours, then the media was replaced with culture media (5 ml) for 24 h and then collected.
Conditioned media were centrifugated to remove particulates and assayed immediately. […] The reagents were prepared following manufacturer's protocols (R&D, USA). Briefly, the membranes were incubated with Array Buffer 6 for 1 hour on a rocking platform shaker. The samples were prepared by adding up to 1 ml of Array Buffer 4 in two separated tubes and then 15 microl of reconstituted mouse cytokine detection antibody cocktail (>40 mouse cytokines) to each prepared sample and incubated 1 hour. Then, the Array Buffer 6 was aspirated and replaced with the sample/antibody mixtures and incubated at 4° C. overnight. The following day, membranes were washed 3 times and Streptavidin-HRP (1:2000) was incubated for 30 minutes at room temperature on a rocking platform shaker. The membranes were washed again, and 1 ml of prepared Chemi Reagent mix was placed onto each membrane. Multiple exposure times were acquired using UVITEC digital analyzer (Alliance, Cambridge, UK).
The positive signals seen in the developed membranes can be identified by placing the transparency overlay template on the array image and aligning it with pairs of reference spots in the three corners of each array (see FIG. 10). […] Pixel densities (average signals of pair of duplicates which represent each cytokine) were analyzed by ImageJ and the average background was subtracted from each spot.
In details, the profiling of cytokines released (>40 cytokines) from RAW 264.7 and human macrophages challenged with paclitaxel (Sigma-Aldrich; 10 nM) or C5a (R&D Systems, Inc. MN, USA; 10 nM) for 24 h using a proteome profiler assay. […] The experimental assay is explained in example 4.
For the human macrophages, human XL Cytokine Array kit #Ary022B was used, while for murine macrophages mouse cytokine Array Panel A #Ary006 was used (R&D systems, USA).

F11 hybridoma cells = experiment: Real Time PCR for IL-8 mRNA expression in differentiated F11 cells; format: cell-based; details: 20 h; 10 nM Paclitaxel or 50 nM C5a
Description: F11 hybridoma cells (ECACC 08062601), chosen as an alternative model of DRG neurons were cultured in DMEM medium (Euroclone, MI, Italy) supplemented with 10% FBS (Sigma-Aldrich St. Louis, CO, USA), 1% penicillin/streptomycin (Euroclone) and 1% glutamine (Euroclone) at 37° C., in a humidified 95% air-5% CO2 atmosphere. For the experiments, cells were used at 18th passage and seeded at 1×10^4 cells/cm2. After 24 h, cells were differentiated with rat NGF (rNGF) (Sigma). rNGF was dissolved in DMEM with 1% penicillin/streptomycin and 1% glutamine (FBS free) at the final concentration 50 ng/ml. The medium was replaced every 3 days until complete differentiation, which happened after 7 days. […]
For gene expression analysis, the following protocol was used: total RNA was extracted by Trizol reagent, according to the manufacturer's instructions. The total RNA concentration was determined spectrophotometrically in RNAase-free water, and 1 μg aliquots of total RNA were reverse-transcripted into cDNA using ProtoScript First Strand cDNA Synthesis Kit (NEB). […] Relative expression levels were calculated for each sample after normalization against reference gene, using the ΔΔCt method for comparing relative fold expression differences, as previously described [Livak et al., 2001 DOI: 10.1006/meth.2001.1262]. […]

Row | Molecule | levels of MCP-1, MIP-1α, MIP-1β, MIP-2 and ID Ra compared to the control group [1] | proteome profile of cytokines released [1] | IL-8 relative mRNA expression (F11 hybridoma cells)
1 | CC(=O)O[C@H]1C(=O)[C@@]2(C)[C@H]([C@H](OC(=O)c3ccccc3)[C@]3(O)C[C@H](OC(=O)[C@H](O)[C@@H](NC(=O)c4ccccc4)c4ccccc4)C(C)=C1C3(C)C)[C@]1(OC(C)=O)CO[C@@H]1C[C@@H]2O [Paclitaxel] | significantly increased | resembled that of typical anaphylaxis | increase IL-8 expression levels
2 | B1 | significantly increased | resembled that of typical anaphylaxis | increases IL-8 expression levels
